This is an account of results in the METLIN SMRT retention time set (Domingo-Almenara et al. 2019).

The data set in a line: gradient 5% acetonitrile 3 min, to 50% in 2 min, to 85% in 15 min, held 3 min, 100 µL/min. Conditions: column: Zorbax Extend-C18 2.1 x 50 mm; eluents: water / acetonitrile, 0.1% formic acid. In a few lines:
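Values are retention times taken from adduct peaks that software picked and an analyst inspected. The pure standards were run as mixtures of ~100 molecules on HPLC linked to a quadrupole time-of-flight mass spectrometer, in positive and negative ionization mode. A Zorbax Extend-C18 column (2.1 × 50 mm, 1.8 μm) was used at 100 μL/min with water and acetonitrile, each including 0.1% formic acid.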
Regarding `COc1ccc(-c2c(C)noc2NC(C)=O)cc1S(=O)(=O)N1CCN(c2ccc(F)cc2)CC1`, the RP-LC retention time is 843 s. Regarding `COc1ccc(C(=O)Nc2cc(-c3ccccn3)no2)cc1`, the RP-LC retention time worked out at 784 s. Regarding `Cc1nn(C)c(C)c1S(=O)(=O)N1CCC(OCCOCc2ccccc2)CC1`, the RP-LC retention time was determined as 896 s. Molecule `CCOC(=O)c1cnc2nc(-c3ccccc3Cl)nn2c1C` showed an RP-LC retention time of 945 s. The molecule `Cn1c(=O)c2ccn(CC(=O)N3CCN(c4ccc(F)cc4)CC3)c2n(C)c1=O` registered an RP-LC retention time of 683 s. Regarding `O=C(Nc1ccc(Br)cc1)Nc1ccc2nc3n(c(=O)c2c1)CCCC3`, the RP-LC retention time stood at 740 s. The molecule `Cc1ccc(-c2cc(C(=O)NC3CCCCC3)c(C)[nH]2)cc1` came in with an RP-LC retention time of 958 s. As to `O=C(CSc1nc(=O)n2cc(Cl)ccc2n1)Nc1ccc(OC(F)(F)F)cc1`, the RP-LC retention time turned out to be 820 s. Turning to `O=C(Cn1nc(N2CCOCC2)c2ccccc2c1=O)Nc1cccc(C(F)(F)F)c1`, the RP-LC retention time was found to be 894 s. With `Cc1ccc2c(Nc3ccc(C)c(C)c3)c(C(=O)N3CCCCC3C)cnc2n1` (stereo not given), the RP-LC retention time was 672 s. In the case of `O=S(=O)(c1ccc2c(c1)-c1oncc1CO2)N1CCN(C2CCCCC2)CC1` it was 640 s. With `CC(=O)c1ccc(NC(=O)c2cnn(-c3ccc(Br)cc3)c2)cc1`, the RP-LC retention time turned out to be 948 s. The molecule `Cc1noc(/C=C\c2ccc(S(=O)(=O)NC3CC3)cc2)c1NC(=O)C1CC1` registered an RP-LC retention time of 766 s. Molecule `Cc1ccc(Sc2nccnc2N2CCCC(C(=O)NCc3cc(F)cc(F)c3)C2)cc1` (stereo not given) gave an RP-LC retention time of 1120 s. For the molecule `Clc1ccc(-c2nnc(-c3cccnc3N3CCC4(CC3)OCCO4)o2)cc1`, the RP-LC retention time is 1010 s. In the case of `O=C(c1ccc2c(c1)OCO2)N1CCC2(CC1)N=C(c1ccccc1)NO2` it was 858 s.

For `CCC(CN(C)Cc1ccccc1)NC(=O)CSc1nc2ccccc2n(C)c1=O` (stereo not given), the RP-LC retention time turned out to be 653 s. As for `O=C(Nc1ccc2c(c1)OCCO2)C1CCCN(S(=O)(=O)Cc2ccc(Cl)cc2)C1` (stereo not given), the RP-LC retention time turned out to be 968 s. On to `CCc1cccc(NC(=O)C2CCN(S(=O)(=O)c3cn(CC)cn3)CC2)c1`, for which the RP-LC retention time amounted to 794 s.

`COc1ccc(Cl)cc1NC(=O)NC1CCCCC1N1C(=O)CSC1=O` (stereo not given) registered an RP-LC retention time of 870 s. For `CCc1noc(NC(C)=O)c1-c1ccc(C)c(S(=O)(=O)Nc2cc(OC)ccc2OC)c1`, the RP-LC retention time came to 819 s.

Molecule `CC(C)c1nnc(-c2cccnc2N2CCN(C(=O)c3ccco3)CC2)o1` displayed an RP-LC retention time of 735 s. For `CC(C)c1nc2ccc(C(=O)NCCCN3CCN(C4CCCCC4)CC3)cc2o1` the value was 588 s; for `COc1cccc(NC(=O)C2CCCN(c3nnc4ccc(Cl)cn34)C2)c1` (stereo not given), 774 s. Turning to `COC(=O)c1cc(N2CCN(C)CC2)nc2c(C)cccc12`, the RP-LC retention time came out at 670 s.

The molecule `CC(C)n1cnc(S(=O)(=O)N2CCCC(C(=O)Nc3cccc(Cl)c3)C2)c1` (stereo not given) returned an RP-LC retention time of 842 s. Take `Cc1sc(C)c(S(=O)(=O)N2CCCCC2)c1-c1cc(C(F)(F)F)on1`: the RP-LC retention time came to 1210 s. For the molecule `CCCN(C(=O)Nc1ccc(CC)cc1)c1nc(-c2ccc(C3CCCCC3)cc2)cs1`, the RP-LC retention time was determined as 619 s. Molecule `COCCCNC(=O)CSc1nccc2c1ccn2Cc1ccccc1` showed an RP-LC retention time of 683 s. `CCN(CC)CCNC(=O)c1sc2ncn(Cc3ccccc3F)c(=O)c2c1C` showed an RP-LC retention time of 638 s. Turning to `CCC1CCCCN1Cc1nc(Cn2ccn3nc(-c4ccc(C)c(C)c4)cc3c2=O)no1` (stereo not given), the RP-LC retention time worked out at 765 s.

`Cn1cc2c3c(cccc31)CN(C(=O)c1c(F)cccc1F)CC2` registered an RP-LC retention time of 920 s. On to `CCN1CCN(c2ncnc3c2cnn3-c2ccccc2Cl)CC1`, for which the RP-LC retention time is 582 s. For `Cc1cccc(NS(=O)(=O)c2ccc3nnc(C)n3c2)c1` the value was 687 s; for `O=C(Nc1ccc(C(=O)N2CCC(C(=O)NC3CCCCCC3)CC2)cc1)c1ccccc1Cl`, 839 s.

As to `O=C(Cn1c(=O)oc2ccccc21)N1CCN(c2ccccn2)CC1`, the RP-LC retention time was determined as 598 s. In the case of `CCOC(=O)c1c(S(=O)(=O)N2CCC(C(=O)NC3CCCCCCC3)CC2)c(C)n(C)c1C` it was 932 s; in that of `Cc1ccc(-c2cc3c(=O)n(Cc4noc(-c5ccc6c(c5)OCO6)n4)ccn3n2)c(C)c1`, 1120 s. For `CCOc1ccc(-c2nc(Cc3noc(-c4cccc(OC)c4)n3)c(C)o2)cc1` the value was 1220 s. In the case of `O=C(Nc1cccc(-c2cn3cccnc3n2)c1)c1ccccc1Cl` it was 666 s; in that of `Cc1sc(NC(=O)Cc2csc(-c3ccccc3)n2)nc1-c1ccc(Br)cc1`, 1270 s. `O=C(c1cc(-c2ccncc2)n[nH]1)N1CCCC(C(=O)N2CCN(c3ccc(F)cc3)CC2)C1` (stereo not given): the RP-LC retention time stood at 615 s. `Cc1cccc2nc(-c3ccc(Cl)cc3)c(Nc3ccc4c(c3)OCCO4)n12` returned an RP-LC retention time of 701 s. `CNS(=O)(=O)c1cc(-c2nnc(-c3ccccc3)o2)ccc1OC` came in with an RP-LC retention time of 786 s.

With `CCCn1c(CCNC(=O)c2cccc(Cl)c2)nc2cccnc21`, the RP-LC retention time turned out to be 639 s. For `COCc1c(C(=O)O)nnn1-c1ccccc1F` the value was 670 s. In the case of `O=C(Nc1ccccc1)C(=O)c1ccc[nH]1` it was 812 s; in that of `CCCn1cc(S(=O)(=O)Nc2ccc(Cl)cc2)c2cccnc21`, 942 s; in that of `CNC(=O)c1cc(-c2ccccc2)n(C)c1C`, 591 s. For the molecule `CCCN1CCN(CCNC(=O)C2CCCN(c3ncc(-c4cccc(F)c4)cn3)C2)CC1` (stereo not given), the RP-LC retention time was determined as 641 s. Regarding `Cn1nccc1-c1nc(-c2ccc3oc(-c4ccccc4)nc3c2)no1`, the RP-LC retention time came to 1230 s. With `CC(C)CC(=O)N1CCC2(CC1)NCc1ccccc1-n1ccnc12`, the RP-LC retention time was 594 s. The molecule `CC(=O)N1CCC2(CC1)NC(=O)c1ccccc1O2` yielded an RP-LC retention time of 633 s. In the case of `Cc1ccc(Nc2nccc(N(C)c3ccc4c(C)n(C)nc4c3)n2)cc1S(N)(=O)=O` it was 685 s; in that of `O=C(Nc1nc(-c2ccccc2)cs1)C(=O)c1c[nH]c2ccccc12`, 1070 s; in that of `COCCNC(=O)Cc1c(C)n(Cc2ccccc2)c2nc(-c3ccccc3)nn2c1=O`, 776 s.

`CCN1CCN(Cc2ccc(C(=O)N3CCN(c4ccc(C)cc4)CC3)cc2)C(=O)C1=O` had an RP-LC retention time of 694 s.

As for `Cc1cc(=O)n(CC(=O)N2CCCc3ccccc32)c(N2CCCCC2)n1`, the RP-LC retention time is 703 s. In the case of `CCS(=O)(=O)c1nc2ccc(NS(=O)(=O)c3c(C)n[nH]c3C)cc2s1` it was 693 s; in that of `COc1ccccc1N1CCN(c2cc(SCC(=O)NC3CCCCC3)ncn2)CC1`, 875 s.

`CSCCC(NC(=O)COc1cccc2ccccc12)C(=O)O` (stereo not given) yielded an RP-LC retention time of 769 s. For `CCn1ccc(NC(=O)c2ccccc2)n1`, the RP-LC retention time came to 694 s.

Molecule `COc1cccc(CCC(=O)NC(C)C(=O)Nc2nc3ccccc3[nH]2)c1` (stereo not given) returned an RP-LC retention time of 660 s.

As to `Clc1ccc(-c2cc3c(N4CCN(C5CCCCC5)CC4)nccn3n2)cc1`, the RP-LC retention time is 806 s. In the case of `Cc1cc(NS(=O)(=O)c2ccc(-c3c(C)noc3C)cc2)ccc1Br` it was 1030 s; in that of `COc1cc(NC(=O)CN2C(=O)C3CCCCN3c3ccc(C(=O)N(C)C)cc32)cc(OC)c1OC` (stereo not given), 734 s. Regarding `CCCCOc1ccc(-c2nc(C3CC(=O)N(c4ccc(C)cc4)C3)no2)cc1` (stereo not given), the RP-LC retention time was 1310 s. In the case of `CCOC(=O)CNC(=O)N1CCN(Cc2nc3cccnc3n2-c2ccccc2)CC1`, the RP-LC retention time was 585 s. With `CCOC(=O)CNC(=O)NCC(c1ccccc1)c1c[nH]c2ccccc12` (stereo not given), the RP-LC retention time stood at 847 s. Regarding `CCOc1ccc(N2CC(c3nnc(NC(=O)c4ccc(C(C)(C)C)cc4)o3)CC2=O)cc1` (stereo not given), the RP-LC retention time was determined as 935 s. `O=C(NCCCn1ncccc1=O)c1cccc(-n2ccc3ccccc32)c1`: the RP-LC retention time was determined as 770 s. As for `COc1ccc(OCc2noc(CNC(=O)CSc3nc4ccccc4s3)n2)cc1`, the RP-LC retention time was determined as 855 s. `Cc1ccc(S(=O)(=O)N2CCC(CCNC(=O)NCCc3ccccc3)CC2)cc1` came in with an RP-LC retention time of 924 s. Regarding `CCCCN1C(=O)C(C)(C(=O)NCCOC)Oc2cccnc21` (stereo not given), the RP-LC retention time was found to be 781 s. For the molecule `Cc1ccc(NS(=O)(=O)c2c(-c3nc(C4CCC4)no3)c(C)n(C)c2C)cc1`, the RP-LC retention time was 989 s. For the molecule `CCC(Oc1ccc(Cl)cc1)C(=O)OC1CC2CCC(C1)N2C` (stereo not given), the RP-LC retention time amounted to 815 s.

The molecule `CCn1c(=O)n(CC(=O)NCCN2CCCC2)c(=O)c2cnc(-c3ccc(Cl)cc3)nc21` gave an RP-LC retention time of 706 s. For `CC(=O)Oc1ccc(Nc2cc(C)nc3nc(-c4cccnc4)nn23)cc1` the value was 688 s; for `S=C1SCN(CCc2ccccc2)CN1CCc1ccccc1`, 1210 s; for `Cc1ccccc1OCC(O)CN1CCN(c2ccc(Cl)cc2)CC1` (stereo not given), 787 s.
